Data reported in article PMC6349357, “Computational and experimental analysis of bioactive peptide linear motifs in the integrin adhesome” (PLoS ONE, 2019).
Marks after values point to notes of the source that are not given here.

Key:
[1] = assay type: physicochemical
Description: Peptides were stored in powder form at -80°C. Prior to use, they were left at room temperature for one hour. They were then mixed with a specific volume of deionised water to bring them to a 1mM concentration and were then aliquoted and frozen at -80°C. They were thawed a single time before use and discarded after an experiment. Peptides which were not soluble in deionised water (pal-APTNEFYA, pal-LEEDDEEGE, pal-TNITYRGT and pal-KLLITIHDRKE) were dissolved in a 10% DMSO and 90% deionised water solution (leading to a final concentration of 0.2% DMSO when combined with platelets, see below). These peptides were further diluted during platelet aggregations.

[2] = tested on: TRAP-activated platelets; assay: Inhibition of TRAP-induced platelet aggregation after pre-incubation with peptide; assay type: cell-based, human (healthy volunteers); settings: for Aggregation after TRAP, peptide alone 1x (A 1x / B 1x) / Aggregation after TRAP, peptide alone 2x (A 2x / B 2x): TRAP 2 μM after 6 minutes pre-incubation, mean n = 3; for Aggregation after TRAP, peptide alone 1x (A 1x / B 1x): 4 μM pal-peptides, 10 μM tat-peptides; for Aggregation after TRAP, peptide alone 2x (A 2x / B 2x): double concentration of 4 μM (pal) / 10 μM (tat); for Aggregation after TRAP activation, donor d: replicate donor d; for Aggregation after TRAP activation, donor d / Aggregation after TRAP activation, donor f / Aggregation after TRAP activation, donor g / Aggregation after TRAP activation, donor h / Aggregation after TRAP activation, donor i / Aggregation after TRAP activation, donor j: pal 20 μM, tat 50 μM; for Aggregation after TRAP activation, donor f: replicate donor f; for Aggregation after TRAP activation, donor g: replicate donor g; for Aggregation after TRAP activation, donor h: replicate donor h; for Aggregation after TRAP activation, donor i: replicate donor i; for Aggregation after TRAP activation, donor j: replicate donor j
Method in brief: (§1)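 Aggregation was read by optical density at 37°C under 1100 rpm stirring. Samples were 3x10^5/μl washed human platelets, rested 45 min and supplemented with 1.8 mM calcium chloride. Peptide went in at 2 min, followed 6 min later by TRAP at an experiment-dependent concentration, with 7 min further recording.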

[3] = tested on: resting platelets; assay: Platelet aggregation induced by peptide in resting washed platelets (activation); assay type: cell-based, human (healthy volunteers); settings: for Activation, 5μM / Activation, 20μM: S3 Table, n=3; for Activation, 5μM: peptide 5 μM; for Activation, 20μM: peptide 20 μM; for Activation: platelet aggregation in resting platelets after 6 minutes incubation with peptide, pal-peptides 20 μM, tat-peptides 50 μM, optical density, aggregometer, mean, n>=3; for Aggregation before TRAP activation, donor d: replicate donor d; for Aggregation before TRAP activation, donor d / Aggregation before TRAP activation, donor f / Aggregation before TRAP activation, donor g / Aggregation before TRAP activation, donor h / Aggregation before TRAP activation, donor i / Aggregation before TRAP activation, donor j: pal 20 μM, tat 50 μM; for Aggregation before TRAP activation, donor f: replicate donor f; for Aggregation before TRAP activation, donor g: replicate donor g; for Aggregation before TRAP activation, donor h: replicate donor h; for Aggregation before TRAP activation, donor i: replicate donor i; for Aggregation before TRAP activation, donor j: replicate donor j
Method in brief: as §1

[4] = tested on: tyrosine phosphorylation in platelets; assay: Phosphotyrosine western blot (4G10) of platelets treated with peptide; assay type: cell-based, human (healthy volunteers); parameters: key to Phospho: R: in resting platelets; A: after TRAP activation; settings: for Phospho: phosphorylation changes associated with peptide treatment, pal 20 μM, tat 50 μM, TRAP 4 μM
Description: A platelet concentration of 3x10^5 /μl was used when performing standard aggregations and a concentration of 1x10^6 /μl was used for sample preparation for western blot analysis. The extent of platelet aggregation was measured by quantifying the optical density of the samples using the Bio-Data PAP-8 aggregometer (platelet aggregation profiler, Horsham, PA, USA). A temperature of 37°C was maintained and samples were stirred using magnets spinning at 1100 rpm. 200 μl of washed platelets was added to each aggregation tube. Different volumes of buffer, peptide and TRAP were added to achieve the desired concentrations. Peptide/buffer was added to each well after two minutes. TRAP, with a final concentration depending on the experiment, was added 6 minutes later and data was collected for an additional 7 minutes.
After the aggregation step, tubes were immediately placed on ice. 27 μl of lysis buffer was then added and the tube was vortexed vigorously. Lysates were left on ice for one hour and vortexed frequently. Proteins were then centrifuged at 14,000 rcf for 10 minutes to remove debris. Samples were then mixed with 2x sample buffer. 50 μl each sample was added to 50 μl of sample buffer. The protein was then denatured by heating to 95°C for 5 minutes. 10 μl of lysate was kept for protein quantification. All samples and lysates were frozen at -80°C.
The Bradford assay was then performed on the lysates to determine protein concentration. Protein concentrations were measured using the Bio-Rad DC Protein Assay. A calibration was created using samples containing a known concentration of bovine serum albumin. These were prepared in advance by sequential dilutions with final concentrations of 1.5mg/ml, 1mg/ml, 0.8mg/ml, 0.6mg/ml, 0.4mg/ml, 0.2mg/ml, 0mg/ml. Samples were then dispensed into a 96 well plate and the Bio-Rad DC reagents were added as described in the protocol. Samples were left to rest for 15 minutes and were then read using 690 0.15 mode on the Wallac plate reader. A standard curve was calculated from the standard samples of known concentration and the y = ax+b equation was used to determine the concentration of the other samples.
Sodium Dodecyl Sulfate Polyacrylamide Gel Electrophoresis (SDS-PAGE) was performed to separate proteins by molecular weight. Polyacrylamide gels were prepared (see Reagents section). Samples or molecular markers were loaded in volumes to give 20 μg of protein. The gels were then run for approximately 80 minutes or until the samples reached the end of the gel. The proteins were then transferred to polyvinylidene difluoride (PVDF) membranes using a Bio-Rad Wet Blot Transfer Cell apparatus. During the transfer the membranes were submerged in 1x transfer buffer (10% 10x transfer buffer, 70% deionised water and 20% methanol). Transfer was performed either overnight at 40 volts at 4°C, or at 100 volts for 1 hour cooled with an ice block. After the transfer the membranes were blocked for 1 hour using 3% bovine albumin serum (BSA) dissolved in TBS-T. Membranes were incubated with 4G10 antibody with a 1:1000 dilution. Unbound primary antibody was washed off with TBS-T three times for 5 minutes each. Membranes were then incubated with anti-mouse IgG secondary antibody (Millipore) with a dilution of 1:30,000. Membranes were submerged in chemiluminescence ECL solution (Thermo Scientific). They were then measured using the western blot developer UVP. One image was taken every 80 seconds for 40 minutes. Numeric data was extracted from selected blots using ImageJ.

[5] = S3 Table, peptide 5 μM, aggregation after TRAP, n=3
[6] = S3 Table, peptide 20 μM, aggregation after TRAP, n=3
[7] = platelet aggregation induced by 4 μM TRAP in platelets pre-incubated with peptide (low value = inhibition), pal-peptides 20 μM, tat-peptides 50 μM, mean, n>=3

| Solubility in deionised water [1] | Substance | Platelet aggregation remaining after TRAP (low = inhibition) [2, 5] | Platelet aggregation remaining after TRAP (low = inhibition) [2, 6] | Aggregation after TRAP, peptide alone 1x (A 1x / B 1x) [2] | Aggregation after TRAP, peptide alone 2x (A 2x / B 2x) [2] | Aggregation after TRAP activation, donor d ([2]; TRAP 4 μM) | Aggregation after TRAP activation, donor f ([2]; TRAP 4 μM) | Aggregation after TRAP activation, donor g ([2]; TRAP 4 μM) | Activation, 5μM ([3]; unit assumed) | Activation, 20μM ([3]; unit assumed) | Activation ([3]; unit assumed) | Aggregation before TRAP activation, donor d [3] | Aggregation before TRAP activation, donor f [3] | Aggregation before TRAP activation, donor g [3] | Platelet aggregation remaining after TRAP (low = inhibition) [2, 7] | Phospho [4] | Aggregation after TRAP activation, donor h ([2]; TRAP 4 μM) | Aggregation after TRAP activation, donor i ([2]; TRAP 4 μM) | Aggregation after TRAP activation, donor j ([2]; TRAP 4 μM) | Aggregation before TRAP activation, donor h [3] | other results |
| --- | --- | --- | --- | --- | --- | --- | --- | --- | --- | --- | --- | --- | --- | --- | --- | --- | --- | --- | --- | --- | --- |
| not soluble | pal-APTNEFYA [pal-SDC4_tail, N-terminally palmitylated syndecan-4 tail peptide] | 61 | 34 | 27.67 | 24.67 | 9 | 54 | 41 | 2% | 2% | 7% | 2 | 4 | 15 | – | – | – | – | – | – | Aggregation (inhibition effects of syndecan-derived peptides) ([2]; S2 Table A, peptide 20 μM, TRAP 4 μM, mean, n=6): 34; Summary of effects of SDC4-derived palmitylated peptides and scrambled controls, 20μM ([2]; S2 Table B / S2 Fig, 20 μM, activation of resting platelets and inhibition of aggregation induced by 4 μM TRAP, in words): Inhibitor; Platelet aggregation after TRAP activation [2, 7]: 34 ^*; Inhibition, donor 14_06_13 ([2]; replicate 14_06_13, peptide 20 μM, TRAP 4 μM): 40; Inhibition, donor 18_06_13 ([2]; replicate 18_06_13, peptide 20 μM, TRAP 4 μM): 67; Inhibition, donor 20_06_13 ([2]; replicate 20_06_13, peptide 20 μM, TRAP 4 μM): 51; Inhibition, donor 20_08_13 ([2]; replicate 20_08_13, peptide 20 μM, TRAP 4 μM): 11; Platelet aggregation remaining after TRAP (low = inhibition) ([2]; replicate 22_08_13_DONOR1, peptide 20 μM, TRAP 4 μM): 6; Platelet aggregation remaining after TRAP (low = inhibition) ([2]; replicate 22_08_13_DONOR2, peptide 20 μM, TRAP 4 μM): 34; Activation, donor 14 06 13 ([3]; replicate 14_06_13, SDC4 peptides and controls, 20 μM, unit assumed): 2%; Activation, donor 18_06_13 ([3]; replicate 18_06_13, SDC4 peptides and controls, 20 μM, in % (unit assumed)): 3; Activation, donor 20_06_13 ([3]; replicate 20_06_13, SDC4 peptides and controls, 20 μM, in % (unit assumed)): 2; Activation, donor 20 08 13 ([3]; replicate 20_08_13, SDC4 peptides and controls, 20 μM, unit assumed): 5%; Activation, donor 22_08_13_DONOR1 ([3]; replicate 22_08_13_DONOR1, SDC4 peptides and controls, 20 μM): 2; Activation, donor 22_08_13_DONOR2 ([3]; replicate 22_08_13_DONOR2, SDC4 peptides and controls, 20 μM): 2 |
| not soluble | pal-KLLITIHDRKE-(NH2) [pal-ITGB3_JM, N-terminally palmitylated ITGB3 juxtamembrane peptide] | – | – | – | – | 76 | 77 | 68 | – | – | 4% | 4 | 3 | 5 | 73 | – | – | – | – | – | – |
| not soluble | pal-TNITYRGT [pal-ITGB3_tail, N-terminally palmitylated ITGB3 tail peptide] | – | – | – | – | 74 | 77 | 63 | – | – | 3% | 2 | 5 | 3 | 71 | – | – | – | – | – | – |

The next lines start with the substance.

| Substance | Solubility in deionised water [1] | Platelet aggregation remaining after TRAP (low = inhibition) [2, 5] | Platelet aggregation remaining after TRAP (low = inhibition) [2, 6] | Aggregation after TRAP, peptide alone 1x (A 1x / B 1x) [2] | Aggregation after TRAP, peptide alone 2x (A 2x / B 2x) [2] | Aggregation after TRAP activation, donor d ([2]; TRAP 4 μM) | Aggregation after TRAP activation, donor f ([2]; TRAP 4 μM) | Aggregation after TRAP activation, donor g ([2]; TRAP 4 μM) | Activation, 5μM ([3]; unit assumed) | Activation, 20μM ([3]; unit assumed) | Activation ([3]; unit assumed) | Aggregation before TRAP activation, donor d [3] | Aggregation before TRAP activation, donor f [3] | Aggregation before TRAP activation, donor g [3] | Platelet aggregation remaining after TRAP (low = inhibition) [2, 7] | Phospho [4] | Aggregation after TRAP activation, donor h ([2]; TRAP 4 μM) | Aggregation after TRAP activation, donor i ([2]; TRAP 4 μM) | Aggregation after TRAP activation, donor j ([2]; TRAP 4 μM) | Aggregation before TRAP activation, donor h [3] | other results |
| --- | --- | --- | --- | --- | --- | --- | --- | --- | --- | --- | --- | --- | --- | --- | --- | --- | --- | --- | --- | --- | --- |
| pal-KVGFFKR-(NH2) [pal-ITGA2B_JM, N-terminally palmitylated ITGA2B juxtamembrane peptide KVGFFKR] | – | 73 | 69 | 37.33 | 49.33 | – | – | – | 66% | 62% | – | – | – | – | 50 | R | 52 | 36 | 64 | 30 | Activation [3]: 17 ^*; Aggregation before TRAP activation, donor i [3]: 11; Aggregation before TRAP activation, donor j [3]: 12 |
| pal-LEEDDEEGE [pal-ITGA2B_tail, N-terminally palmitylated ITGA2B tail peptide] | not soluble | – | – | 65.67 | 66 | 74 | 76 | 4 | – | – | 2% | 2 | 3 | 2 | 52 | – | – | – | – | – | – |
| tat-DPMSSTYIEELGKREVTIPPKYRELLA-(NH2) [tat-CAST_1, tat peptide from calpastatin (CAST)] | – | – | – | 70.33 | 70.67 | – | – | – | – | – | 3% | – | – | – | 72 | A | 77 | 63 | 76 | 4 | Phosphotyrosine blot density, peptide + TRAP, Average ([4]; average of 3 replicates, tat peptide 50 µM, TRAP 4 µM): 64.53; Phosphorylation in resting platelets ([4]; in words): no effect; Phosphorylation intensity of TRAP activated platelets ([4]; in words, p = 0.03): increased the phosphorylation intensity; relative density (peptide lane to activated control), replicate 1 ([4]; replicate 1): 4.12; Phosphotyrosine blot density, peptide + TRAP, replicate 1 ([4]; replicate 1, tat peptide 50 µM, TRAP 4 µM): 80; relative density (peptide lane to activated control), replicate 2 ([4]; replicate 2): 1.42; Phosphotyrosine blot density, peptide + TRAP, replicate 2 ([4]; replicate 2, tat peptide 50 µM, TRAP 4 µM): 58.7; relative density (peptide lane to activated control), replicate 3 ([4]; replicate 3): 1.22; Phosphotyrosine blot density, peptide + TRAP, replicate 3 ([4]; replicate 3, tat peptide 50 µM, TRAP 4 µM): 54.9; Aggregation before TRAP activation, donor i [3]: 4; Aggregation before TRAP activation, donor j [3]: 3 |
